ChEMBL document CHEMBL1201861, “Genomics of Drug Sensitity in Cancer screening data, Wellcome Trust Sanger Institute”

What was measured:
Test in all cases: cells
COLO-824 = type: functional, cell-based, Homo sapiens; conditions: Homo sapiens, COLO-824
Description: SANGER: Inhibition of human COLO-824 cell growth in a cell viability assay.

D-263MG = type: functional, cell-based, Homo sapiens; conditions: Homo sapiens, D-263MG
Description: SANGER: Inhibition of human D-263MG cell growth in a cell viability assay.

DB = type: functional, cell-based; conditions: Homo sapiens
Description: SANGER: Inhibition of human DB cell growth in a cell viability assay.

DOHH-2 = type: functional, cell-based; conditions: Homo sapiens;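 also: growth inhibition of human DOHH-2 cells, read out with a cell viability assay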
Description: SANGER: Inhibition of human DOHH-2 cell growth in a cell viability assay.

EM-2 = type: functional, cell-based; conditions: Homo sapiens;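 also: growth inhibition of EM-2 cells, read out with a cell viability assay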
Description: SANGER: Inhibition of human EM-2 cell growth in a cell viability assay.

ES6 = type: functional, cell-based, Homo sapiens; conditions: Homo sapiens, ES6;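 also: growth inhibition of human ES6 cells, read out with a cell viability assay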
Description: SANGER: Inhibition of human ES6 cell growth in a cell viability assay.

EW-16 = type: functional, cell-based, Homo sapiens; conditions: Homo sapiens, EW-16;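 also: growth inhibition of human EW-16 cells, read out as cell viability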
Description: SANGER: Inhibition of human EW-16 cell growth in a cell viability assay.

EOL1 = type: functional, cell-based; conditions: Homo sapiens;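 also: growth inhibition of EoL-1 cells, read out by a cell viability assay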
Description: SANGER: Inhibition of human EoL-1-cell cell growth in a cell viability assay.

GR-ST = type: functional, cell-based; conditions: Homo sapiens
Description: SANGER: Inhibition of human GR-ST cell growth in a cell viability assay.

HT = type: functional, cell-based; conditions: Homo sapiens
Description: SANGER: Inhibition of human HT cell growth in a cell viability assay.

KINGS-1 = type: functional, cell-based, Homo sapiens; conditions: Homo sapiens, KINGS-1;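 also: cell viability assay measuring suppression of KINGS-1 cell growth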
Description: SANGER: Inhibition of human KINGS-1 cell growth in a cell viability assay.

KM12 = type: functional, cell-based, Homo sapiens; conditions: Homo sapiens, KM12;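 also: KM12 cell growth inhibition, read out with a cell viability assay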
Description: SANGER: Inhibition of human KM12 cell growth in a cell viability assay.

KY821 = type: functional, cell-based; conditions: Homo sapiens;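 also: growth inhibition of human KY821 cells, read out by a cell viability assay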
LS-1034 = type: functional, cell-based, Homo sapiens; conditions: Homo sapiens, LS-1034
Description: SANGER: Inhibition of human LS-1034 cell growth in a cell viability assay.

MHH-NB-11 = type: functional, cell-based, Homo sapiens; conditions: Homo sapiens, MHH-NB-11;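 also: growth inhibition of human MHH-NB-11 cells, read out by a cell viability assay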
Description: SANGER: Inhibition of human MHH-NB-11 cell growth in a cell viability assay.

NB6 = type: functional, cell-based, Homo sapiens; conditions: Homo sapiens, NB6;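 also: growth inhibition of NB6 cells, read out by a cell viability assay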
Description: SANGER: Inhibition of human NB6 cell growth in a cell viability assay.

NH-12 = type: functional, cell-based, Homo sapiens; conditions: Homo sapiens, NH-12;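 also: growth inhibition of NH-12 cells, read out with a cell viability assay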
Description: SANGER: Inhibition of human NH-12 cell growth in a cell viability assay.

OMC-1 = type: functional, cell-based, Homo sapiens; conditions: Homo sapiens, OMC-1;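 also: growth inhibition of the OMC-1 cell line, measured by a cell viability assay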
Description: SANGER: Inhibition of human OMC-1 cell growth in a cell viability assay.

RS4-11 = type: functional, cell-based; conditions: Homo sapiens;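 also: growth inhibition of RS4-11 cells, read out by a cell viability assay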
Description: SANGER: Inhibition of human RS4-11 cell growth in a cell viability assay.

SW 954 = type: functional, cell-based, Homo sapiens; conditions: Homo sapiens, SW 954;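 also: growth inhibition of SW954 human cancer cells, read out as cell viability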
Description: SANGER: Inhibition of human SW954 cell growth in a cell viability assay.

SW 962 = type: functional, cell-based, Homo sapiens; conditions: Homo sapiens, SW 962;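 also: growth inhibition of human SW962 cells, read out by a cell viability assay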
Description: SANGER: Inhibition of human SW962 cell growth in a cell viability assay.

A704 = type: functional, cell-based, Homo sapiens; conditions: Homo sapiens, A704;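 also: growth inhibition of human A704 cells, read out with a cell viability assay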
Description: SANGER: Inhibition of human A704 cell growth in a cell viability assay.

AM-38 = type: functional, cell-based, Homo sapiens; conditions: Homo sapiens, AM-38;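 also: growth inhibition of AM-38 cells of human origin, read out by a cell viability assay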
TE-11 = type: functional, cell-based, Homo sapiens; conditions: Homo sapiens, TE-11;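 also: growth inhibition of human TE-11 cells, read out by a cell viability assay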
Description: SANGER: Inhibition of human TE-11 cell growth in a cell viability assay.

TE-6 = type: functional, cell-based, Homo sapiens; conditions: Homo sapiens, TE-6;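 also: growth inhibition of TE-6 cells, read out with a cell viability assay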
Description: SANGER: Inhibition of human TE-6 cell growth in a cell viability assay.

TGBC1TKB = type: functional, cell-based, Homo sapiens; conditions: Homo sapiens, TGBC1TKB;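 also: growth inhibition of TGBC1TKB cells, read out by a cell viability assay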
Description: SANGER: Inhibition of human TGBC1TKB cell growth in a cell viability assay.

no-10 = type: functional, cell-based, Homo sapiens; conditions: Homo sapiens;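 also: growth inhibition of no-10 cells, read out with a cell viability assay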
Description: SANGER: Inhibition of human no-10 cell growth in a cell viability assay.

COLO-320-HSR = type: functional, cell-based; conditions: Homo sapiens;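 also: growth inhibition of COLO-320-HSR cells, determined with a cell viability assay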
Description: SANGER: Inhibition of human COLO-320-HSR cell growth in a cell viability assay.

NCI-N87 = type: functional, cell-based, Homo sapiens; conditions: Homo sapiens, NCI-N87;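 also: growth inhibition of human NCI-N87 cells, read out with a cell viability assay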
Description: SANGER: Inhibition of human NCI-N87 cell growth in a cell viability assay.

HCC 2998 = type: functional, cell-based, Homo sapiens; conditions: Homo sapiens, HCC 2998;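 also: growth inhibition of human HCC2998 cells, measured with a cell viability read-out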
Description: SANGER: Inhibition of human HCC2998 cell growth in a cell viability assay.

SMILES	IC50 (COLO-824) [nM]	IC50 (D-263MG) [nM]	IC50 (DB) [nM]	IC50 (DOHH-2) [nM]	IC50 (EM-2) [nM]	IC50 (ES6) [nM]	IC50 (EW-16) [nM]	IC50 (EOL1) [nM]	IC50 (GR-ST) [nM]	IC50 (HT) [nM]	IC50 (KINGS-1) [nM]	IC50 (KM12) [nM]	IC50 (KY821) [nM]	IC50 (LS-1034) [nM]	IC50 (MHH-NB-11) [nM]	IC50 (NB6) [nM]	IC50 (NH-12) [nM]	IC50 (OMC-1) [nM]	IC50 (SW 954) [nM]	IC50 (SW 962) [nM]	also measured
CN1CCN(CCOc2cc(OC3CCOCC3)c3c(Nc4c(Cl)ccc5c4OCO5)ncnc3c2)CC1 [SARACATINIB]	> 2000	> 2000	> 2000	1720	265	> 2000	1550	> 2000	> 2000	> 2000	> 2000	> 2000	> 2000	> 2000	> 2000	> 2000	> 2000	> 2000	> 2000	> 2000	IC50 (RS4-11): > 2000 nM; IC50 (A704): 892 nM; IC50 (AM-38): > 2000 nM; IC50 (TE-11): 1430 nM; IC50 (TE-6): > 2000 nM; IC50 (TGBC1TKB): > 2000 nM; IC50 (no-10): > 2000 nM; IC50 (COLO-320-HSR): > 2000 nM
CO[C@H]1C[C@@H]2CC[C@@H](C)[C@@](O)(O2)C(=O)C(=O)N2CCCC[C@H]2C(=O)O[C@H]([C@H](C)C[C@@H]2CC[C@@H](O)[C@H](OC)C2)CC(=O)[C@H](C)/C=C(\C)[C@@H](O)[C@@H](OC)C(=O)[C@H](C)C[C@H](C)/C=C/C=C/C=C/1C [SIROLIMUS]	> 100	> 100	> 100	3.35	38.5	3.43	26.9	> 100	0.846	17.6	51.5	> 100	> 100	> 100	> 100	> 100	> 100	> 100	> 100	> 100	IC50 (NCI-N87): > 100 nM; IC50 (RS4-11): > 100 nM; IC50 (A704): > 100 nM; IC50 (AM-38): > 100 nM; IC50 (TE-11): 77.2 nM; IC50 (TE-6): 2.77 nM; IC50 (TGBC1TKB): 2.69 nM; IC50 (no-10): 7.29 nM; IC50 (COLO-320-HSR): > 100 nM
CNC(=O)c1cc(Oc2ccc(NC(=O)Nc3ccc(Cl)c(C(F)(F)F)c3)cc2)ccn1 [SORAFENIB]	> 4000	> 4000	> 4000	> 4000	1360	> 4000	> 4000	> 4000	> 4000	> 4000	> 4000	1020	> 4000	> 4000	> 4000	> 4000	> 4000	> 4000	> 4000	> 4000	IC50 (HCC 2998): 888 nM; IC50 (AM-38): > 4000 nM; IC50 (TE-6): > 4000 nM; IC50 (TGBC1TKB): > 4000 nM; IC50 (no-10): 1620 nM; IC50 (COLO-320-HSR): > 4000 nM
CCC(=O)N1CCN(c2ccc(-n3c(=O)ccc4cnc5ccc(-c6cnc7ccccc7c6)cc5c43)cc2C(F)(F)F)CC1 [TORIN1]	878	661	501	2.25	115	10.8	11.9	30	26.5	80	58	76.4	220	364	> 1200	52.7	> 1200	78	37.9	57.6	IC50 (RS4-11): 59.4 nM; IC50 (A704): 97.4 nM; IC50 (AM-38): > 1200 nM; IC50 (TE-11): 23.7 nM; IC50 (TE-6): 681 nM; IC50 (TGBC1TKB): 3.79 nM; IC50 (no-10): 15.8 nM; IC50 (COLO-320-HSR): 131 nM
Cc1cc(Nc2cc(N3CCN(C)CC3)nc(Sc3ccc(NC(=O)C4CC4)cc3)n2)n[nH]1 [TOZASERTIB]	> 2000	> 2000	> 2000	338	266	> 2000	238	335	> 2000	> 2000	> 2000	264	> 2000	> 2000	> 2000	773	> 2000	> 2000	122	> 2000	IC50 (RS4-11): 4.04 nM; IC50 (A704): > 2000 nM; IC50 (AM-38): > 2000 nM; IC50 (TE-11): 150 nM; IC50 (TE-6): > 2000 nM; IC50 (TGBC1TKB): > 2000 nM; IC50 (no-10): > 2000 nM; IC50 (COLO-320-HSR): > 2000 nM
